Source: patent US6376497B1, “Antifungal azole derivatives having a fluorinated vinyl group and process for preparing same” (Korea Research Institute of Chemical Technology, priority 1999, dated 2002)

How the values were obtained:
Assay in all cases: In vitro antifungal activity, microbroth dilution MIC
Type in all cases: cell-based
[1] = tested on: Aspergillus furnigatus B. 19119; details: A furnigatus B. 19119, RPMI-1640, 35° C., 4 to 48 hours
Method: (§1) In vitro antifungal activities of the inventive antifungal compounds were evaluated using the test strains shown in Table VIII by the following microbroth dilution method which is a modified version of the procedure recommended by National Committee for Clinical Laboratory Standards(see National Committee for Clinical Laboratory Standards, 1992, Reference methods for broth dilution antifungal susceptibility testing of yeasts, Proposed standard M27-P, National Committee for clinical laboratory standards, Villanova, Pa; and National Committee for Clinical Laboratory Standards, 1995, Reference methods for broth dilution antifungal susceptibility testing of yeasts. Tentative standard M27-T, National Committee for clinical laboratory standards, Villanova, Pa).
(§2) Sabourad Dextrose Agar(Difco) was used as a culture medium, and RPMI-1640 broth(Sigma. Co. w/L-glutamine, wo/NaHCO3)(0.165 M MOPS, pH 7.0), as a dilution medium.
(§3) Each of the test strains were subcultured in Sabourad Dextrose Agar medium twice and a stain sample was taken from prominent colonies and suspended in sterile physiological saline solution in a cap tube. The turbidity of the suspension was adjusted to that of the Mcfarland 0.5 standard sample(approximately 10^6 CFU/ml). Then the suspension was diluted 500-fold with sterile RPMI-1640 liquid medium to 2×10^3 CFU/ml.
(§4) Each of the test compounds(the compounds obtained in Examples 1 to 150 and comparative compounds, i.e., fluconazole(FCZ) and itraconazole (ICZ)), was dissolved in DMSO to give a stock solution having a concentration of 4000 μg/ml and the stock solution was successively diluted to obtain test solutions having test compound concentrations of 200, 100, 50, 25, 12.5, 6.25, 3.13, 1.56, 0.78, 0.39, 0.20 and 0.10 μg/ml, respectively.
(§5) 0.1 ml portion of the test solutions were added to the wells of a sterile 96 well plate. Then, 0.1 ml portion of each of the test strain solutions were added successively to the wells and the plate was incubated at 35° C. for 4 to 48 hours.
(§6) Minimal inhibitory concentration(MIC) of each compound was defined as the concentration of the test compound where no growth of the strain could be observed.

[2] = tested on: Candida pseudotropicalis K. 11658; details: C. pseudotropicalis K. 11658, RPMI-1640, 35° C., 4 to 48 hours
Method: as §1, §2, §3, §4, §5, §6

Candida albicans C1-2 = details: C. albicans C1-2, RPMI-1640, 35° C., 4 to 48 hours
Method: as §1, §2, §3, §4, §5, §6

Candida krusei K. 11655 = details: C. krusei K. 11655, RPMI-1640, 35° C., 4 to 48 hours
Method: as §1, §2, §3, §4, §5, §6

[3] = tested on: Candida albicans IFO. 1385; details: C. albicans IFO. 1385, RPMI-1640, 35° C., 4 to 48 hours
Method: as §1, §2, §3, §4, §5, §6

[4] = tested on: Trichophyton mentagrophytes B. 32663; details: T. mentagrophytes B. 32663, RPMI-1640, 35° C., 4 to 48 hours
Method: as §1, §2, §3, §4, §5, §6

[5] = tested on: Candida parapsitosis A. 7330; details: C. parapsitosis A. 7330, RPMI-1640, 35° C., 4 to 48 hours
Method: as §1, §2, §3, §4, §5, §6

[6] = tested on: Cryptococcus neoformans B. 42419; details: Cry. neoformans B. 42419, RPMI-1640, 35° C., 4 to 48 hours
Method: as §1, §2, §3, §4, §5, §6

[7] = tested on: Cryptococcus neoformans IFM. 40092; details: Cry. neoformans IFM. 40092, RPMI-1640, 35° C., 4 to 48 hours
Method: as §1, §2, §3, §4, §5, §6

[8] = tested on: Trichophyton mentagrophytes A. 9129; details: T. mentagrophytes A. 9129, RPMI-1640, 35° C., 4 to 48 hours
Method: as §1, §2, §3, §4, §5, §6

[9] = tested on: Aspergillus niger A. 16404; details: A. niger A. 16404, RPMI-1640, 35° C., 4 to 48 hours
Method: as §1, §2, §3, §4, §5, §6

[10] = tested on: Candida tropicalis A. 13803; details: C. tropicalis A. 13803, RPMI-1640, 35° C., 4 to 48 hours
Method: as §1, §2, §3, §4, §5, §6

[11] = tested on: Torulopsis glabrata B. 16205; details: T. glabrata B. 16205, RPMI-1640, 35° C., 4 to 48 hours
Method: as §1, §2, §3, §4, §5, §6

[12] = tested on: Candida albicans A. 10231; details: C. albicans A. 10231, RPMI-1640, 35° C., 4 to 48 hours
Method: as §1, §2, §3, §4, §5, §6

[13] = tested on: Cryptococcus neoformans A. 34144; details: Cry. neoformans A. 34144, RPMI-1640, 35° C., 4 to 48 hours
Method: as §1, §2, §3, §4, §5, §6

Cc1cc(C=C(F)OCC2COC(Cn3ccnc3)(c3ccc(F)cc3F)O2)ccc1Cl (mixture of isomers) [Ex. 50]
Minimal inhibitory concentration (MIC) [1]: 6.25 µg/mL
Minimal inhibitory concentration (MIC) [2]: 12.5 µg/mL
Minimal inhibitory concentration (MIC) (Candida albicans C1-2): 12.5 µg/mL
Minimal inhibitory concentration (MIC) (Candida krusei K. 11655): 25.0 µg/mL
Minimal inhibitory concentration (MIC) [3]: 0.39 µg/mL
Minimal inhibitory concentration (MIC) [4]: 0.78 µg/mL
Minimal inhibitory concentration (MIC) [5]: 12.5 µg/mL
Minimal inhibitory concentration (MIC) [6]: 1.56 µg/mL
Minimal inhibitory concentration (MIC) [7]: 0.20 µg/mL
Minimal inhibitory concentration (MIC) [8]: 3.13 µg/mL
Minimal inhibitory concentration (MIC) [9]: 25.0 µg/mL
Minimal inhibitory concentration (MIC) [10]: 25.0 µg/mL
Minimal inhibitory concentration (MIC) [11]: 6.25 µg/mL
Minimal inhibitory concentration (MIC) [12]: 12.5 µg/mL
Minimal inhibitory concentration (MIC) [13]: 1.56 µg/mL

FC(=Cc1cccc2ccccc12)OCC1COC(Cn2ccnc2)(c2ccc(F)cc2F)O1 (mixture of isomers) [Ex. 51]
Minimal inhibitory concentration (MIC) [1]: 3.13 µg/mL
Minimal inhibitory concentration (MIC) [2]: 25.0 µg/mL
Minimal inhibitory concentration (MIC) (Candida albicans C1-2): 12.5 µg/mL
Minimal inhibitory concentration (MIC) (Candida krusei K. 11655): 50.0 µg/mL
Minimal inhibitory concentration (MIC) [3]: 0.39 µg/mL
Minimal inhibitory concentration (MIC) [4]: 0.78 µg/mL
Minimal inhibitory concentration (MIC) [5]: >100 µg/mL
Minimal inhibitory concentration (MIC) [6]: 1.56 µg/mL
Minimal inhibitory concentration (MIC) [7]: 0.20 µg/mL
Minimal inhibitory concentration (MIC) [8]: 1.56 µg/mL
Minimal inhibitory concentration (MIC) [9]: 12.5 µg/mL
Minimal inhibitory concentration (MIC) [10]: 25.0 µg/mL
Minimal inhibitory concentration (MIC) [11]: 6.25 µg/mL
Minimal inhibitory concentration (MIC) [12]: 12.5 µg/mL
Minimal inhibitory concentration (MIC) [13]: 1.56 µg/mL

FC(OCC1COC(Cn2ccnc2)(c2ccc(F)cc2F)O1)=C(c1ccccc1)C(F)(F)F (mixture of isomers) [Ex. 52]
Minimal inhibitory concentration (MIC) [1]: 1.56 µg/mL
Minimal inhibitory concentration (MIC) [2]: 50.0 µg/mL
Minimal inhibitory concentration (MIC) (Candida albicans C1-2): 12.5 µg/mL
Minimal inhibitory concentration (MIC) (Candida krusei K. 11655): 100 µg/mL
Minimal inhibitory concentration (MIC) [3]: 0.39 µg/mL
Minimal inhibitory concentration (MIC) [4]: 0.78 µg/mL
Minimal inhibitory concentration (MIC) [5]: >100 µg/mL
Minimal inhibitory concentration (MIC) [6]: 0.78 µg/mL
Minimal inhibitory concentration (MIC) [7]: ≦0.10 μg/ml
Minimal inhibitory concentration (MIC) [8]: 1.56 µg/mL
Minimal inhibitory concentration (MIC) [9]: 6.25 µg/mL
Minimal inhibitory concentration (MIC) [10]: 50.0 µg/mL
Minimal inhibitory concentration (MIC) [11]: 3.13 µg/mL
Minimal inhibitory concentration (MIC) [12]: 12.5 µg/mL
Minimal inhibitory concentration (MIC) [13]: 0.78 µg/mL

Cc1cccc(C(=C(F)OCC2COC(Cn3ccnc3)(c3ccc(F)cc3F)O2)C(F)(F)F)c1 (mixture of isomers) [Ex. 53]
Minimal inhibitory concentration (MIC) [1]: 3.13 µg/mL
Minimal inhibitory concentration (MIC) [2]: >100 µg/mL
Minimal inhibitory concentration (MIC) (Candida albicans C1-2): 25.0 µg/mL
Minimal inhibitory concentration (MIC) (Candida krusei K. 11655): >100 µg/mL
Minimal inhibitory concentration (MIC) [3]: 0.78 µg/mL
Minimal inhibitory concentration (MIC) [4]: 1.56 µg/mL
Minimal inhibitory concentration (MIC) [5]: >100 µg/mL
Minimal inhibitory concentration (MIC) [6]: 0.78 µg/mL
Minimal inhibitory concentration (MIC) [7]: ≦10.10 μg/ml
Minimal inhibitory concentration (MIC) [8]: 3.13 µg/mL
Minimal inhibitory concentration (MIC) [9]: 25.0 µg/mL
Minimal inhibitory concentration (MIC) [10]: 100 µg/mL
Minimal inhibitory concentration (MIC) [11]: 6.25 µg/mL
Minimal inhibitory concentration (MIC) [12]: 12.5 µg/mL
Minimal inhibitory concentration (MIC) [13]: 1.56 µg/mL

Cc1ccc(C(=C(F)OCC2COC(Cn3ccnc3)(c3ccc(F)cc3F)O2)C(F)(F)F)cc1 (mixture of isomers) [Ex. 54]
Minimal inhibitory concentration (MIC) [1]: 3.13 µg/mL
Minimal inhibitory concentration (MIC) [2]: 100 µg/mL
Minimal inhibitory concentration (MIC) (Candida albicans C1-2): 25.0 µg/mL
Minimal inhibitory concentration (MIC) (Candida krusei K. 11655): >100 µg/mL
Minimal inhibitory concentration (MIC) [3]: 0.78 µg/mL
Minimal inhibitory concentration (MIC) [4]: 1.56 µg/mL
Minimal inhibitory concentration (MIC) [5]: >100 µg/mL
Minimal inhibitory concentration (MIC) [6]: 0.78 µg/mL
Minimal inhibitory concentration (MIC) [7]: ≦0.10 μg/ml
Minimal inhibitory concentration (MIC) [8]: 3.13 µg/mL
Minimal inhibitory concentration (MIC) [9]: 25.0 µg/mL
Minimal inhibitory concentration (MIC) [10]: 100 µg/mL
Minimal inhibitory concentration (MIC) [11]: 6.25 µg/mL
Minimal inhibitory concentration (MIC) [12]: 12.5 µg/mL
Minimal inhibitory concentration (MIC) [13]: 1.56 µg/mL

CCc1ccc(C(=C(F)OCC2COC(Cn3ccnc3)(c3ccc(F)cc3F)O2)C(F)(F)F)cc1 (mixture of isomers) [Ex. 55]
Minimal inhibitory concentration (MIC) [1]: 100 µg/mL
Minimal inhibitory concentration (MIC) [2]: 50.0 µg/mL
Minimal inhibitory concentration (MIC) (Candida albicans C1-2): 12.5 µg/mL
Minimal inhibitory concentration (MIC) (Candida krusei K. 11655): >100 µg/mL
Minimal inhibitory concentration (MIC) [3]: 0.78 µg/mL
Minimal inhibitory concentration (MIC) [4]: 3.13 µg/mL
Minimal inhibitory concentration (MIC) [5]: >100 µg/mL
Minimal inhibitory concentration (MIC) [6]: 0.78 µg/mL
Minimal inhibitory concentration (MIC) [7]: ≦0.10 μg/ml
Minimal inhibitory concentration (MIC) [8]: 6.25 µg/mL
Minimal inhibitory concentration (MIC) [9]: >100 µg/mL
Minimal inhibitory concentration (MIC) [10]: 25.0 µg/mL
Minimal inhibitory concentration (MIC) [11]: 6.25 µg/mL
Minimal inhibitory concentration (MIC) [12]: 12.5 µg/mL
Minimal inhibitory concentration (MIC) [13]: 0.78 µg/mL

Cc1ccc(C(=C(F)OCC2COC(Cn3ccnc3)(c3ccc(F)cc3F)O2)C(F)(F)F)cc1C (mixture of isomers) [Ex. 56]
Minimal inhibitory concentration (MIC) [1]: 50.0 µg/mL
Minimal inhibitory concentration (MIC) [2]: >100 µg/mL
Minimal inhibitory concentration (MIC) (Candida albicans C1-2): 12.5 µg/mL
Minimal inhibitory concentration (MIC) (Candida krusei K. 11655): >100 µg/mL
Minimal inhibitory concentration (MIC) [3]: 0.78 µg/mL
Minimal inhibitory concentration (MIC) [4]: 3.13 µg/mL
Minimal inhibitory concentration (MIC) [5]: >100 µg/mL
Minimal inhibitory concentration (MIC) [6]: 0.78 µg/mL
Minimal inhibitory concentration (MIC) [7]: 0.20 µg/mL
Minimal inhibitory concentration (MIC) [8]: 6.25 µg/mL
Minimal inhibitory concentration (MIC) [9]: >100 µg/mL
Minimal inhibitory concentration (MIC) [10]: 100 µg/mL
Minimal inhibitory concentration (MIC) [11]: 6.25 µg/mL
Minimal inhibitory concentration (MIC) [12]: 12.5 µg/mL
Minimal inhibitory concentration (MIC) [13]: 1.56 µg/mL

Cc1cc(C)cc(C(=C(F)OCC2COC(Cn3ccnc3)(c3ccc(F)cc3F)O2)C(F)(F)F)c1 (mixture of isomers) [Ex. 57]
Minimal inhibitory concentration (MIC) [1]: 50.0 µg/mL
Minimal inhibitory concentration (MIC) [2]: >100 µg/mL
Minimal inhibitory concentration (MIC) (Candida albicans C1-2): 12.5 µg/mL
Minimal inhibitory concentration (MIC) (Candida krusei K. 11655): >100 µg/mL
Minimal inhibitory concentration (MIC) [3]: 0.78 µg/mL
Minimal inhibitory concentration (MIC) [4]: 3.13 µg/mL
Minimal inhibitory concentration (MIC) [5]: >100 µg/mL
Minimal inhibitory concentration (MIC) [6]: 0.78 µg/mL
Minimal inhibitory concentration (MIC) [7]: 0.20 µg/mL
Minimal inhibitory concentration (MIC) [8]: 6.25 µg/mL
Minimal inhibitory concentration (MIC) [9]: >100 µg/mL
Minimal inhibitory concentration (MIC) [10]: 100 µg/mL
Minimal inhibitory concentration (MIC) [11]: 6.25 µg/mL
Minimal inhibitory concentration (MIC) [12]: 12.5 µg/mL
Minimal inhibitory concentration (MIC) [13]: 1.56 µg/mL
